Reference: patent US20250114486A1, “MARKED FATTY ACID DERIVATIVE, PRECURSOR COMPOUND THEREOF, AND USE THEREOF IN CONTRAST AGENT” (BEIJING NORMAL UNIVERSITY, priority 2022, published 2025)
Where two headings read alike, the source gives them in different places.

Tests used:
[1] = In vivo biodistribution in female Kunming mice; conditions: for Biodistribution: Large Intestine / Biodistribution: Small Intestine / Biodistribution: Stomach: unit % ID
Protocol: Female Kunming mice (20-22 g, n=3) were fasted for 12 h before the experiment, and the purified radioactive ^99mTc complex 130 was dissolved in a normal saline (containing 10% ethanol) solution (about 100 μCi/mL). Female Kunming mice were injected with 100 μL of the above solution through the tail vein, and the mice were killed by cervical dislocation at 5, 15, 30, 60, and 120 min post-injection, respectively. Blood, brain, heart, liver, spleen, lung, kidney, muscle, bone, large intestine, small intestine, stomach and tail were collected, weighed and counted, and the count distribution of each tissue and organ was calculated (unit: % ID/g, the unit of large intestine, small intestine and stomach was % ID), and the data were the mean±standard deviation of three mice in each time phase. At the same time, 100 μL of the above solution was diluted to 10 mL, which was used as the % ID without deducting the tail count.
The corresponding radioactive ^99mTc complex 158 as the typical compounds of the general formula V in this application was selected to conduct an in vivo biodistribution study in female Kunming mice. The specific experimental method was shown in the experimental method of “In vivo biodistribution study of radioactive ^99mTc complex 130 in female Kunming mice” in Example 7 above.

[2] = female SD rats, cited from earlier work
[3] = 30 min after injection, reference 3
[4] = 30 min post-injection, reference 2
[5] = 60 min after injection, reference 2
[6] = 60 min after injection, reference 3
[7] = 60 min post-injection, reference 1
[8] = 60 min post-injection, reference 2
[9] = 120 min after injection, reference 3
[10] = 120 min post-injection, reference 1

Compound: COC(C)(C)C[N+]#[C][99Tc-5]([C]#[N+]CC(C)(C)OC)([C]#[N+]CC(C)(C)OC)([C]#[N+]CC(C)(C)OC)([C]#[N+]CC(C)(C)OC)[C]#[N+]CC(C)(C)OCCCS(=O)(=O)CCCCCS(=O)(=O)CCCSCCCCC(=O)O [^99mTc complex 158]
- heart-to-blood ratios (assessment) [1]: moderate level
- heart-to-lungs ratios (assessment) [1]: moderate level
- myocardial clearance [1]: fast
- Biodistribution: Blood ([1]; 5 min post-injection): 13.21 ± 2.84 ID %/g
- Biodistribution: Bone ([1]; 5 min post-injection): 2.31 ± 0.36 ID %/g
- Biodistribution: Brain ([1]; 5 min post-injection): 0.39 ± 0.14 ID %/g
- Biodistribution: Heart ([1]; 5 min post-injection): 4.19 ± 0.10 ID %/g
- Biodistribution: Kidney ([1]; 5 min post-injection): 7.80 ± 1.46 ID %/g
- Biodistribution: Liver ([1]; 5 min post-injection): 37.80 ± 6.80 ID %/g
- Biodistribution: Lungs ([1]; 5 min post-injection): 5.91 ± 0.89 ID %/g
- Biodistribution: Muscle ([1]; 5 min post-injection): 1.82 ± 0.16 ID %/g
- Biodistribution: Spleen ([1]; 5 min post-injection): 1.55 ± 0.01 ID %/g
- Heart-to-Blood ratio ([1]; 5 min post-injection): 0.32
- Heart-to-Liver ratio ([1]; 5 min post-injection): 0.11
- Heart-to-Lungs ratio ([1]; 5 min post-injection): 0.71
- Biodistribution: Large Intestine ([1]; 5 min post-injection): 1.04 ± 0.37 % ID
- Biodistribution: Small Intestine ([1]; 5 min post-injection): 5.39 ± 0.84 % ID
- Biodistribution: Stomach ([1]; 5 min post-injection): 0.54 ± 0.19 % ID
- Biodistribution: Blood ([1]; 15 min post-injection): 5.47 ± 0.09 ID %/g
- Biodistribution: Bone ([1]; 15 min post-injection): 1.04 ± 0.38 ID %/g
- Biodistribution: Brain ([1]; 15 min post-injection): 0.14 ± 0.05 ID %/g
- Biodistribution: Heart ([1]; 15 min post-injection): 1.63 ± 0.02 ID %/g
- Biodistribution: Kidney ([1]; 15 min post-injection): 4.59 ± 0.68 ID %/g
- Biodistribution: Liver ([1]; 15 min post-injection): 33.35 ± 0.37 ID %/g
- Biodistribution: Lungs ([1]; 15 min post-injection): 2.69 ± 0.70 ID %/g
- Biodistribution: Muscle ([1]; 15 min post-injection): 1.10 ± 0.22 ID %/g
- Biodistribution: Spleen ([1]; 15 min post-injection): 0.86 ± 0.28 ID %/g
- Heart-to-Blood ratio ([1]; 15 min post-injection): 0.30
- Heart-to-Liver ratio ([1]; 15 min post-injection): 0.05
- Heart-to-Lungs ratio ([1]; 15 min post-injection): 0.61
- Biodistribution: Large Intestine ([1]; 15 min post-injection): 0.67 ± 0.15 % ID
- Biodistribution: Small Intestine ([1]; 15 min post-injection): 16.67 ± 2.60 % ID
- Biodistribution: Stomach ([1]; 15 min post-injection): 0.46 ± 0.13 % ID
- Biodistribution: Blood ([1]; 30 min post-injection): 1.20 ± 0.1 ID %/g
- Biodistribution: Bone ([1]; 30 min post-injection): 0.37 ± 0.1 ID %/g
- Biodistribution: Brain ([1]; 30 min post-injection): 0.1 ± 0.04 ID %/g
- Biodistribution: Heart ([1]; 30 min post-injection): 0.91 ± 0.11 ID %/g
- Biodistribution: Kidney ([1]; 30 min post-injection): 2.22 ± 0.2 ID %/g
- Biodistribution: Liver ([1]; 30 min post-injection): 22.5 ± 3.2 ID %/g
- Biodistribution: Lungs ([1]; 30 min post-injection): 0.9 ± 0.04 ID %/g
- Biodistribution: Muscle ([1]; 30 min post-injection): 0.46 ± 0.1 ID %/g
- Biodistribution: Spleen ([1]; 30 min post-injection): 0.55 ± 0.1 ID %/g
- Heart-to-Blood ratio ([1]; 30 min post-injection): 0.76
- Heart-to-Liver ratio ([1]; 30 min post-injection): 0.04
- Heart-to-Lungs ratio ([1]; 30 min post-injection): 1.00
- Biodistribution: Large Intestine ([1]; 30 min post-injection): 1.25 ± 0.1 % ID
- Biodistribution: Small Intestine ([1]; 30 min post-injection): 20.9 ± 4.6 % ID
- Biodistribution: Stomach ([1]; 30 min post-injection): 0.25 ± 0.1 % ID
- Biodistribution: Blood ([1]; 60 min post-injection): 0.42 ± 0.03 ID %/g
- Biodistribution: Bone ([1]; 60 min post-injection): 0.24 ± 0.04 ID %/g
- Biodistribution: Brain ([1]; 60 min post-injection): 0.06 ± 0.01 ID %/g
- Biodistribution: Heart ([1]; 60 min post-injection): 0.67 ± 0.09 ID %/g
- Biodistribution: Kidney ([1]; 60 min post-injection): 1.20 ± 0.10 ID %/g
- Biodistribution: Liver ([1]; 60 min post-injection): 22.8 ± 1.20 ID %/g
- Biodistribution: Lungs ([1]; 60 min post-injection): 0.50 ± 0.02 ID %/g
- Biodistribution: Muscle ([1]; 60 min post-injection): 0.31 ± 0.06 ID %/g
- Biodistribution: Spleen ([1]; 60 min post-injection): 0.24 ± 0.06 ID %/g
- Heart-to-Blood ratio ([1]; 60 min post-injection): 1.60
- Heart-to-Liver ratio ([1]; 60 min post-injection): 0.03
- Heart-to-Lungs ratio ([1]; 60 min post-injection): 1.34
- Biodistribution: Large Intestine ([1]; 60 min post-injection): 1.31 ± 0.27 % ID
- Biodistribution: Small Intestine ([1]; 60 min post-injection): 34.24 ± 3.12 % ID
- Biodistribution: Stomach ([1]; 60 min post-injection): 0.38 ± 0.05 % ID
- Biodistribution: Blood ([1]; 120 min post-injection): 0.26 ± 0.01 ID %/g
- Biodistribution: Bone ([1]; 120 min post-injection): 0.15 ± 0.05 ID %/g
- Biodistribution: Brain ([1]; 120 min post-injection): 0.03 ± 0.02 ID %/g
- Biodistribution: Heart ([1]; 120 min post-injection): 0.52 ± 0.01 ID %/g
- Biodistribution: Kidney ([1]; 120 min post-injection): 0.80 ± 0.07 ID %/g
- Biodistribution: Liver ([1]; 120 min post-injection): 13.81 ± 0.59 ID %/g
- Biodistribution: Lungs ([1]; 120 min post-injection): 0.32 ± 0.06 ID %/g
- Biodistribution: Muscle ([1]; 120 min post-injection): 0.21 ± 0.03 ID %/g
- Biodistribution: Spleen ([1]; 120 min post-injection): 0.15 ± 0.07 ID %/g
- Heart-to-Blood ratio ([1]; 120 min post-injection): 2.00
- Heart-to-Liver ratio ([1]; 120 min post-injection): 0.04
- Heart-to-Lungs ratio ([1]; 120 min post-injection): 1.63
- Biodistribution: Large Intestine ([1]; 120 min post-injection): 1.02 ± 0.22 % ID
- Biodistribution: Small Intestine ([1]; 120 min post-injection): 19.83 ± 1.14 % ID
- Biodistribution: Stomach ([1]; 120 min post-injection): 0.47 ± 0.10 % ID
- absolute myocardial uptake (assessment) ([1]; after tail vein injection): low

Compound: [99Tc].[C-]#[N+]CC(C)(C)OC.[C-]#[N+]CC(C)(C)OC.[C-]#[N+]CC(C)(C)OC.[C-]#[N+]CC(C)(C)OC.[C-]#[N+]CC(C)(C)OC.[C-]#[N+]CC(C)(C)OC [^99mTc-MIBI]
- absolute myocardial uptake value ([2]; 10 min after injection, reference 2): 3.26±0.18 % ID/g
- absolute myocardial uptake value ([2]; 10 min post-injection, reference 1): 3.70 % Dose/g
- absolute myocardial uptake value ([2]; 20 min after injection, reference 2): 3.07 0.21 % ID/g
- absolute myocardial uptake value ([2]; 30 min after injection, reference 2): 3.13±0.12 % ID/g
- Heart-to-Blood ratio [2, 3]: 114.6±34.70
- absolute myocardial uptake value [2, 3]: 3.16±0.56 % ID/g
- absolute myocardial uptake value ([2]; 30 min post-injection, reference 1): 3.16 % Dose/g
- Heart-to-Blood ratio [2, 4]: 104.30
- Heart-to-Lungs ratio [2, 4]: 4.66±0.24
- Heart-to-Lungs ratio ([2]; 30 min post-injection, reference 3): 3.57±0.72
- Heart-to-Liver ratio [2, 5]: 2.65±0.22
- absolute myocardial uptake value [2, 5]: 3.29±0.12 % ID/g
- Heart-to-Blood ratio [2, 6]: 137.80±35.00
- Heart-to-Liver ratio [2, 6]: 4.25±0.84
- absolute myocardial uptake value [2, 6]: 3.14±0.42 % ID/g
- Heart-to-Liver ratio [2, 7]: 2.04±0.17
- Heart-to-Lungs ratio [2, 7]: 6.77±0.55
- absolute myocardial uptake value [2, 7]: 3.04 % Dose/g
- Heart-to-Blood ratio [2, 8]: 164.50
- Heart-to-Lungs ratio [2, 8]: 7.32±0.28
- Heart-to-Lungs ratio ([2]; 60 min post-injection, reference 3): 6.41±1.25
- Heart-to-Blood ratio [2, 9]: 209.00±12.40
- Heart-to-Liver ratio [2, 9]: 4.52±1.57
- absolute myocardial uptake value [2, 9]: 2.83±0.25 % ID/g
- Heart-to-Liver ratio [2, 10]: 2.96±0.34
- Heart-to-Lungs ratio [2, 10]: 6.48±0.51
- Heart-to-Lungs ratio ([2]; 120 min post-injection, reference 3): 7.97±1.89
